What was measured:
F2002 cell line [1] = experiment: The compound was tested for inhibitory activity against human cytomegalovirus (HCMV) in flow 2002 cells; no inhibition up to 100 ug/ml.; type: functional, cell-based
F2002 cell line [2] = experiment: The compound was tested for inhibitory activity against human cytomegalovirus (HCMV) in flow 2002 cells; type: functional; details: read-out: CD50 (the source's name)
F2002 cell line [3] = experiment: The compound was tested for inhibitory activity against human cytomegalovirus (HCMV) (WFl strain) in plaque reduction assay in flow 2002 cells; type: functional
MT4 [4] = experiment: Compound was tested against HIV-l (RF strain) in plaque reduction assay in MT-4 cells; no inhibition up to 100 ug/ml..; type: functional, cell-based; details: Homo sapiens
Vero [5] = experiment: Compound was tested against HSV-1 (KOS strain) in plaque reduction assay in Vero cells; no inhibition up to 100 ug/ml.; type: functional, cell-based; details: Chlorocebus sabaeus
Vero [6] = experiment: Compound was tested against HSV-2 (186 strain) in plaque reduction assay in Vero cells; no inhibition up to 100 ug/ml.; type: functional, cell-based; details: Chlorocebus sabaeus
MT4 [7] = experiment: Compound was tested against HIV-l (RF strain) in plaque reduction assay in MT-4 cells; no inhibition up to 100 ug/ml.; type: functional, cell-based; details: Homo sapiens

Compound	Activity (F2002 cell line [1])	CC50 (F2002 cell line [2])	PD50 (F2002 cell line [3])	Activity (MT4 [4])	Activity (Vero [5])	Activity (Vero [6])	Activity (MT4 [7])
CC(=O)Nc1nc(=O)n(C2CSC(CO)(CO)O2)cc1Br (stereo not given)	No inhibition						
O=c1ccn(C2CSC3(COP(=O)(O)OC3)O2)c(=O)[nH]1 (stereo not given)		> 100 µg/mL	2.5 µg/mL	No inhibition	No inhibition	No inhibition	
Nc1nc(=O)n(C2CSC3(COP(=O)(O)OC3)O2)cc1F (stereo not given)		> 100 µg/mL	>100 µg/mL		No inhibition	No inhibition	No inhibition
Nc1nc2c(ncn2COC(CO)CO)c(=O)[nH]1 [GANCICLOVIR]		> 100 µg/mL	0.1 µg/mL				
N.Nc1ccn(C2CSC3(COP(=O)(O)OC3)O2)c(=O)n1 (stereo not given)		> 100 µg/mL	11 µg/mL		No inhibition	No inhibition	No inhibition
Cc1cn(C2CSC3(COP(=O)(O)OC3)O2)c(=O)[nH]c1=O (stereo not given)		> 100 µg/mL	>100 µg/mL		No inhibition	No inhibition	No inhibition
CC(=O)Nc1ccn(C2CSC(CO)(CO)O2)c(=O)n1 (stereo not given)	No inhibition						
Nc1nc(=O)n(C2CSC3(COP(=O)(O)OC3)O2)cc1Br (stereo not given)		> 100 µg/mL	2.5 µg/mL		No inhibition	No inhibition	No inhibition
O=c1ccn(C2CSC(CO)(CO)O2)c(=O)[nH]1 (stereo not given)	No inhibition						
N.Nc1nc2c(ncn2C2CSC3(COP(=O)(O)OC3)O2)c(=O)[nH]1 (stereo not given)		> 100 µg/mL	>100 µg/mL		No inhibition	No inhibition	No inhibition
